Patent US20230234943A1, “TREX1 INHIBITORS AND USES THEREOF” (Tempest Therapeutics, Inc., priority 2020, published 2023)

biological target: T1, Human TREX1 enzyme (amino acids 1-242) (Homo sapiens, UniProt Q9NSU2); test: Human TREX1 enzymatic assay with dsDNA native oligonucleotide (Picogreen fluorescence); format: biochemical; conditions: 2 mM dithiothreitol in assay buffer; 50 nM dsDNA oligonucleotide; 30 min preincubation at 25° C.; read-out: TREX1/Human + DTT IC50 AVG
T1 construct: Human TREX1 enzyme (amino acids 1-242)
T1 sequence (Q9NSU2 1-242): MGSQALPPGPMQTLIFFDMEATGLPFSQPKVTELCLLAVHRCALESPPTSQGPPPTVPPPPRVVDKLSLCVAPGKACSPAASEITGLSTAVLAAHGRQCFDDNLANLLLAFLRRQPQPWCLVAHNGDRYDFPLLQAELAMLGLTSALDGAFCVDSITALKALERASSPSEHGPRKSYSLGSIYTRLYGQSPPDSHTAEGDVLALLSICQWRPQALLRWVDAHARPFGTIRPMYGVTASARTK
Outline: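 TREX1 (0.8–0.16 nM final) preincubated with compound (300 μM–13 nM or 30 μM–1.5 nM, 2% DMSO) 30 min at 25 °C in Tris pH 7.7, 5 mM MgCl2, 2 mM DTT. Annealed dsDNA (50 nM) added for 5–15 min at 25 °C; EDTA quench with Picogreen fluorescence readout.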

`COc1cc(-c2nc3cc(N4CCC4)ccc3[nH]2)c(F)c(O)c1O` [Example 157, 4-(5-(azetidin-1-yl)-1H-benzo[d]imidazol-2-yl)-3-fluoro-6-methoxybenzene-1,2-diol] and `COc1cc(-c2nc3cc(N4CCC4)ccc3[nH]2)c(C)c(O)c1O` [Example 189, 4-(5-(azetidin-1-yl)-1H-benzo[d]imidazol-2-yl)-6-methoxy-3-methylbenzene-1,2-diol] fall in the same range of IC50: 1000 to 10000 nM for the first, 1000 to 10000 nM for the second.

First: COc1cc(-c2nc3ccccc3n2C2(C)CCOC2)c(C)c(O)c1O (centres unmarked) [Example 158, 6-methoxy-3-methyl-4-(1-(3-methyltetrahydrofuran-3-yl)-1H-benzo[d]imidazol-2-yl)benzene-1,2-diol]
Second: COc1cc(-c2nc3ccccc3n2C2(C)COC2)c(C)c(O)c1O [Example 169, 6-methoxy-3-methyl-4-(1-(3-methyloxetan-3-yl)-1H-benzo[d]imidazol-2-yl)benzene-1,2-diol]
The IC50 of the first is higher: 1000 to 10000 nM for the first, 100 to 1000 nM for the second. The second is the more potent here.

Compared with `COc1cc(-c2nc3cc(N4CCN(C(=O)c5ccccc5)CC4)ccc3[nH]2)c(F)c(O)c1O` [Example 159, (4-(2-(2-fluoro-3,4-dihydroxy-5-methoxyphenyl)-1H-benzo[d]imidazol-5-yl)piperazin-1-yl)(phenyl)methanone], `COc1cc(-c2nc3cc(Nc4ccccc4)ccc3n2C2(C)COC2)c(F)c(O)c1O` [Example 192, 3-fluoro-6-methoxy-4-[1-(3-methyloxetan-3-yl)-5-(phenylamino)-1H-1,3-benzodiazol-2-yl]benzene-1,2-diol] is lower in IC50: 1000 to 10000 nM for the first, at most 100 nM for the second. The second is the more potent here.

`COc1cc(-c2nc3cc(N4CCC(N5CCCCC5)CC4)ccc3[nH]2)cc(O)c1O` [Example 160, 5-(5-([1,4′-bipiperidin]-1′-yl)-1H-benzo[d]imidazol-2-yl)-3-methoxybenzene-1,2-diol] and `COC(=O)c1cc(-c2nc3cc(N4CCC4)ccc3[nH]2)cc(OC)c1O` [Example 196, methyl 5˜(5-(azetidin-1-yl)-1H-benzo[d]imidazol-2-yl)-2-hydroxy-3-methoxybenzoate] cannot be ordered by IC50: over 100000 nM for the first, over 100000 nM for the second.

`O=C(O)c1ccc(-c2nc3ccccc3n2C2COC2)c(C(F)(F)F)c1O` [Example 161, 2-hydroxy-4-(1-(oxetan-3-yl)-1H-benzo[d]imidazol-2-yl)-3-(trifluoromethyl)benzoic acid] and `Cc1cc(C(=O)O)c(O)cc1-c1nc2ccccc2n1C1COC1` [Example 171, 2-hydroxy-5-methyl-4-(1-(oxetan-3-yl)-1H-benzo[d]imidazol-2-yl)benzoic acid] cannot be ordered by IC50: over 100000 nM for the first, over 100000 nM for the second.

Compared with `Oc1cc(-c2nc3ccccc3n2C2COC2)c2c(c1O)OCC2` [Example 162, 4-(1-(oxetan-3-yl)-1H-benzo[d]imidazol-2-yl)-2,3-dihydrobenzofuran-6,7-diol], `Oc1cc(-c2nc3ccccc3n2C2COC2)c2c(c1O)OCCC2` [Example 163, 5-(1-(oxetan-3-yl)-1H-benzo[d]imidazol-2-yl)chroman-7,8-diol] is lower in IC50: over 100000 nM for the first, 100 to 1000 nM for the second. The second is the more potent here.

Compared with `COc1cc(-c2nc3cc(N4CCC4)c(C)cc3[nH]2)cc(O)c1O` [Example 164, 5-(5-(azetidin-1-yl)-6-methyl-1H-benzo[d]imidazol-2-yl)-3-methoxybenzene-1,2-diol], `COc1cc(-c2nc3cc(O)ccc3[nH]2)c(C)c(O)c1O` [Example 183, 4-(5-hydroxy-1H-1,3-benzodiazol-2-yl)-6-methoxy-3-methylbenzene-1,2-diol] is higher in IC50: 1000 to 10000 nM for the first, 10000 to 100000 nM for the second. The first is the more potent here.

First: COc1cc(-c2nc3ccccc3n2C2CNC2)c(C)c(O)c1O [Example 165, 4-(1-(azetidin-3-yl)-1H-benzo[d]imidazol-2-yl)-6-methoxy-3-methylbenzene-1,2-diol]
Second: COc1cc(-c2nc3ccccc3n2C2CCC2)c(C)c(O)c1O [Example 168, 4-(1-cyclobutyl-1H-benzo[d]imidazol-2-yl)-6-methoxy-3-methylbenzene-1,2-diol]
The IC50 of the first is higher: 10000 to 100000 nM for the first, 100 to 1000 nM for the second.

First: COc1cc(-c2nc3ccc(N4CCC4)cc3n2C2CCOC2)cc(C(=O)O)c1O (centres unmarked) [Example 166, 5-(6-(azetidin-1-yl)-1-(tetrahydrofuran-3-yl)-1H-benzo[d]imidazol-2-yl)-2-hydroxy-3-methoxybenzoic acid]
Second: COc1cc(-c2nc3cc(N4CCC4)ccc3n2C2COC2)c(C)c(O)c1O [Example 187, 4-(5-(azetidin-1-yl)-1-(oxetan-3-yl)-1H-benzo[d]imidazol-2-yl)-6-methoxy-3-methylbenzene-1,2-diol]
The IC50 of the first is higher: 10000 to 100000 nM for the first, 1000 to 10000 nM for the second. The second is the more potent here.

First: COc1cc(-c2nc3ccccc3n2C2COC2)c(F)c(O)c1O [Example 167, 3-fluoro-6-methoxy-4-(1-(oxetan-3-yl)-1H-benzo[d]imidazol-2-yl)benzene-1,2-diol]
Second: COc1cc(-c2nc3ccccc3n2[C@H]2COC[C@@H]2O)c(C)c(O)c1O [Example 170, 4-(1-((3S,4R)-4-hydroxytetrahydrofuran-3-yl)-1H-benzo[d]imidazol-2-yl)-6-methoxy-3-methylbenzene-1,2-diol]
The IC50 of the first is lower: 1000 to 10000 nM for the first, 10000 to 100000 nM for the second. The first is the more potent here.

First: COCCn1c(-c2cc(OC)c(O)c(O)c2C)nc2ccccc21 [Example 172, 6-methoxy-4-[1-(2-methoxyethyl)-1H-1,3-benzodiazol-2-yl]-3-methylbenzene-1,2-diol]
Second: CCc1c(-c2nc3ccccc3n2C2(C)COC2)cc(OC)c(O)c1O [Example 173, 3-ethyl-6-methoxy-4-[1-(3-methyloxetan-3-yl)-1H-1,3-benzodiazol-2-yl]benzene-1,2-diol]
The IC50 of the first is higher: over 100000 nM for the first, 10000 to 100000 nM for the second. The second is the more potent here.

`COc1ccc2c(c1)nc(-c1cc(OC)c(O)c(O)c1C)n2C1CCC1` [Example 176, 4-(1-cyclobutyl-5-methoxy-1H-1,3-benzodiazol-2-yl)-6-methoxy-3-methylbenzene-1,2-diol] and `COc1cc(-c2nc3cc(N4CCC4)ccc3n2C2CCC2)c(C)c(O)c1O` [Example 193] fall in the same range of IC50: 100 to 1000 nM for the first, 100 to 1000 nM for the second.

Compared with `COc1cc(-c2nc3ccc(C(=O)N4CCC4)cc3n2C2(C)COC2)c(F)c(O)c1O` [Example 177, 4-[6-(azetidine-1-carbonyl)-1-(3-methyloxetan-3-yl)-1H-1,3-benzodiazol-2-yl]-3-fluoro-6-methoxybenzene-1,2-diol], `COc1cc(-c2nc3ccc(C(C)(C)O)cc3n2C2(C)COC2)c(F)c(O)c1O` [Example 185, 3-fluoro-4-[6-(2-hydroxypropan-2-yl)-1-(3-methyloxetan-3-yl)-1H-1,3-benzodiazol-2-yl]-6-methoxybenzene-1,2-diol] is higher in IC50: 100 to 1000 nM for the first, 1000 to 10000 nM for the second. The first is the more potent here.

`COc1cc(-c2nc3ccc(-c4ncno4)cc3n2C2(C)COC2)c(F)c(O)c1O` [Example 181, 3-fluoro-6-methoxy-4-[1-(3-methyloxetan-3-yl)-6-(1,2,4-oxadiazol-5-yl)-1H-1,3-benzodiazol-2-yl] benzene-1,2-diol] and `COc1cc(-c2nc3ccc(-c4cn[nH]c4)cc3n2C2(C)COC2)c(F)c(O)c1O` [Example 194] cannot be ordered by IC50: at most 100 nM for the first, at most 100 nM for the second.

`COc1cc(-c2nc3ccc(-c4ccccn4)cc3n2C2(C)COC2)c(F)c(O)c1O` [Example 182, 3-fluoro-6-methoxy-4-[1-(3-methyloxetan-3-yl)-6-(pyridin-2-yl)-1H-1,3-benzodiazol-2-yl]benzene-1,2-diol] and `COc1cc(-c2nc3ccc(-n4cccn4)cc3n2C2(C)COC2)c(F)c(O)c1O` [Example 184, 3-fluoro-6-methoxy-4-[1-(3-methyloxetan-3-yl)-6-(1H-pyrazol-1-yl)-1H-1,3-benzodiazol-2-yl]benzene-1,2-diol] cannot be ordered by IC50: 100 to 1000 nM for the first, at most 100 nM for the second.

Compared with `CNCc1ccc2nc(-c3cc(OC)c(O)c(O)c3F)n(C3(C)COC3)c2c1` [Example 186, 3-fluoro-6-methoxy-4-(6-((methylamino)methyl)-1-(3-methyloxetan-3-yl)-1H-benzo[d]imidazol-2-yl)benzene-1,2-diol], `COc1cc(-c2nc3cc(N(C)C(C)=O)ccc3n2C2(C)COC2)c(F)c(O)c1O` [Example 195] is lower in IC50: 1000 to 10000 nM for the first, 100 to 1000 nM for the second. The second is the more potent here.

First: COc1cc(-c2nc3cc(N4CCC4)ccc3n2C2COC2)c(F)c(O)c1O [Example 188, 4-(5-(azetidin-1-yl)-1-(oxetan-3-yl)-1H-benzo[d]imidazol-2-yl)-3-fluoro-6-methoxybenzene-1,2-diol]
Second: COc1cc(-c2nc3cc(N4CCCC4=O)ccc3n2C2COC2)c(F)c(O)c1O [Example 191, 1-(2-(2-fluoro-3,4-dihydroxy-5-methoxyphenyl)-1-(oxetan-3-yl)-1H-benzo[d]imidazol-5-yl)pyrrolidin-2-one]
The IC50 of the first is lower: 1000 to 10000 nM for the first, 10000 to 100000 nM for the second. The first is the more potent here.

`COc1cc(-c2nc3cc(N4CCCC4=O)ccc3n2C2(C)COC2)c(F)c(O)c1O` [Example 190, 1-[2-(2-fluoro-3,4-dihydroxy-5-methoxyphenyl)-1-(3-methyloxetan-3-yl)-1H-1,3-benzodiazol-5-yl]pyrrolidin-2-one] and `COc1cc(-c2nc3cc(N4CCNC4=O)ccc3n2C2(C)COC2)c(F)c(O)c1O` [Example 198, 1-(2-(2-fluoro-3,4-dihydroxy-5-methoxyphenyl)-1-(3-methyloxetan-3-yl)-1H-benzo[d]imidazol-5-yl)imidazolidin-2-one] cannot be ordered by IC50: 100 to 1000 nM for the first, at most 100 nM for the second.

Compared with `COc1cc(-c2nc3cc(N4CCN(C)C4=O)ccc3n2C2(C)COC2)c(F)c(O)c1O` [Example 197, 1-(2-(2-fluoro-3,4-dihydroxy-5-methoxyphenyl)-1-(3-methyloxetan-3-yl)-1H-benzo[d]imidazol-5-yl)-3-methylimidazolidin-2-one], `COc1c(C)c(-c2nc3cc(N4CCC4)ccc3n2C2COC2)c(F)c(O)c1O` [Example 199, 4-[5-(azetidin-1-yl)-1-(oxetan-3-yl)-1H-1,3-benzodiazol-2-yl]-3-fluoro-6-methoxy-5-methylbenzene-1,2-diol] is higher in IC50: 100 to 1000 nM for the first, 1000 to 10000 nM for the second.
